According to ChEMBL document CHEMBL1201862, “PubChem BioAssay data set” (2004):
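How tested: cells in 96-well plates exposed to compound for 48 hours at five concentrations. Abbreviation: GI50, concentration required for 50% inhibition of growth.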 The source made the active and inactive calls. Rule as the data show it: active = GI50 up to about 1.1 µM and inactive = higher. Where a SMILES comes first, the peptide text is derived from it. The star is where a group is joined. Boc = CC(C)(C)OC(=O)*; Bn = c1ccc(C*)cc1

Assays:
Experiment in all cases: DTP human tumour cell line panel, 48 h
SNB-19 = system: SNB-19
HCT-15 = system: HCT-15
SF-295 = system: SF-295
UACC-62 = system: UACC-62
HCT-116 = system: HCT-116
BT-549 = system: BT-549
MDA-MB-435 = system: MDA-MB-435
K562 = system: K562
NCI/ADR-RES = system: NCI/ADR-RES
OVCAR-4 = system: OVCAR-4
Malme-3M = system: Malme-3M
HL-60 = system: HL-60
SW-620 = system: SW-620
COLO 205 = system: COLO 205
HT-29 = system: HT-29
M14 = system: M14
SK-OV-3 = system: SK-OV-3
U-251 = system: U-251
A498 = system: A498
NCI-H522 = system: NCI-H522

**Q.** How did the GI50 (SNB-19) turn out when `CCOC(=O)CON=c1c2ccccc2ccc2ccccc12` was run?
**A.** The GI50 was > 100 µM (inactive).

**Q.** What about the GI50 (HCT-15) of the same compound?
**A.** Its GI50 is greater than 100 µM.

**Q.** And the GI50 (SF-295)?
**A.** The GI50 was > 100 µM (inactive).

**Q.** What about the GI50 (UACC-62) of the same compound?
**A.** Its GI50 is > 100 µM (inactive).

**Q.** What about the GI50 (HCT-116) of the same compound?
**A.** Its GI50 is > 100 µM (inactive).

**Q.** And the GI50 (BT-549)?
**A.** Its GI50 is > 100 µM (inactive).

**Q.** What about the GI50 (MDA-MB-435) of the same compound?
**A.** Its GI50 is > 100 µM (inactive).

**Q.** What about the GI50 (K562) of the same compound?
**A.** The GI50 was > 100 µM (inactive).

**Q.** And the GI50 (NCI/ADR-RES)?
**A.** Its GI50 is > 100 µM (inactive).

**Q.** And the GI50 (OVCAR-4)?
**A.** The GI50 was > 100 µM (inactive).

**Q.** And the GI50 (Malme-3M)?
**A.** The GI50 was > 100 µM (inactive).

**Q.** And the GI50 (HL-60)?
**A.** The GI50 was > 100 µM (inactive).

**Q.** What about the GI50 (SW-620) of the same compound?
**A.** The GI50 was > 100 µM (inactive).

**Q.** What about the GI50 (COLO 205) of the same compound?
**A.** The GI50 was > 100 µM (inactive).

**Q.** What about the GI50 (HT-29) of the same compound?
**A.** Its GI50 is > 100 µM (inactive).

**Q.** And the GI50 (M14)?
**A.** The GI50 was > 100 µM (inactive).

**Q.** What about the GI50 (SK-OV-3) of the same compound?
**A.** Its GI50 is > 100 µM (inactive).

**Q.** And the GI50 (U-251)?
**A.** The GI50 was > 100 µM (inactive).

**Q.** Which GI50 (SF-295) does the source give for `CC12CCC3c4cc(Br)c(O)c(Br)c4CCC3C1CCC2O` (stereo unspecified) here?
**A.** Its GI50 is 16.3 µM (inactive).

**Q.** And the GI50 (UACC-62)?
**A.** Its GI50 is 14 µM (inactive).

**Q.** And the GI50 (HCT-116)?
**A.** Its GI50 is 19.1 µM (inactive).

**Q.** And the GI50 (BT-549)?
**A.** The GI50 was 16 µM (inactive).

**Q.** What about the GI50 (MDA-MB-435) of the same compound?
**A.** The GI50 was 4.23 µM (inactive).

**Q.** What about the GI50 (K562) of the same compound?
**A.** The GI50 was 6.18 µM (inactive).

**Q.** And the GI50 (NCI/ADR-RES)?
**A.** The GI50 was 18.5 µM (inactive).

**Q.** What about the GI50 (Malme-3M) of the same compound?
**A.** Its GI50 is 14.3 µM (inactive).

**Q.** And the GI50 (HL-60)?
**A.** The GI50 was 14.8 µM (inactive).

**Q.** And the GI50 (SW-620)?
**A.** The GI50 was 14.2 µM (inactive).

**Q.** What about the GI50 (COLO 205) of the same compound?
**A.** Its GI50 is 25.2 µM (inactive).

**Q.** And the GI50 (HT-29)?
**A.** The GI50 was 15.4 µM (inactive).

**Q.** And the GI50 (A498)?
**A.** The GI50 was 18.7 µM (inactive).

**Q.** What about the GI50 (M14) of the same compound?
**A.** The GI50 was 32.7 µM (inactive).

**Q.** And the GI50 (SK-OV-3)?
**A.** The GI50 was 23.5 µM (inactive).

**Q.** What about the GI50 (U-251) of the same compound?
**A.** The GI50 was 15 µM (inactive).

**Q.** Which GI50 (SNB-19) does the source give for `O=C(C(=O)N1CCc2ccccc21)c1c[nH]c2ccccc12` here?
**A.** Its GI50 is > 10 µM (inactive).

**Q.** What about the GI50 (HCT-15) of the same compound?
**A.** Its GI50 is greater than 10 µM.

**Q.** What about the GI50 (SF-295) of the same compound?
**A.** Its GI50 is > 10 µM (inactive).

**Q.** And the GI50 (NCI-H522)?
**A.** Its GI50 is > 10 µM (inactive).

**Q.** And the GI50 (UACC-62)?
**A.** Its GI50 is > 10 µM (inactive).

**Q.** And the GI50 (HCT-116)?
**A.** The GI50 was > 10 µM (inactive).

**Q.** What about the GI50 (BT-549) of the same compound?
**A.** Its GI50 is > 10 µM (inactive).

**Q.** What about the GI50 (MDA-MB-435) of the same compound?
**A.** Its GI50 is > 10 µM (inactive).

**Q.** What about the GI50 (K562) of the same compound?
**A.** The GI50 was > 10 µM (inactive).

**Q.** And the GI50 (NCI/ADR-RES)?
**A.** Its GI50 is > 10 µM (inactive).

**Q.** What about the GI50 (OVCAR-4) of the same compound?
**A.** The GI50 was > 10 µM (inactive).

**Q.** What about the GI50 (Malme-3M) of the same compound?
**A.** The GI50 was > 10 µM (inactive).

**Q.** And the GI50 (HL-60)?
**A.** The GI50 was > 10 µM (inactive).

**Q.** And the GI50 (SW-620)?
**A.** The GI50 was > 10 µM (inactive).

**Q.** What about the GI50 (COLO 205) of the same compound?
**A.** The GI50 was > 10 µM (inactive).

**Q.** And the GI50 (HT-29)?
**A.** The GI50 was > 10 µM (inactive).

**Q.** And the GI50 (M14)?
**A.** Its GI50 is > 10 µM (inactive).

**Q.** What about the GI50 (SK-OV-3) of the same compound?
**A.** The GI50 was > 10 µM (inactive).

**Q.** And the GI50 (U-251)?
**A.** The GI50 was > 10 µM (inactive).

**Q.** What does the source list for `COC(=O)C(CC(C)C)NC(=O)CNC(=O)C(Cc1ccc(OCc2ccccc2)cc1)NC(=O)C(COCc1ccccc1)NC(=O)OC(C)(C)C` (stereo unspecified) (Boc-S(Bn)Y(Bn)GL-OMe; configuration not given here)?
**A.** GI50 (SNB-19): > 100 µM (inactive); GI50 (SF-295): > 100 µM (inactive); GI50 (NCI-H522): 72.8 µM (inactive); GI50 (UACC-62): > 100 µM (inactive); GI50 (HCT-116): > 100 µM (inactive); GI50 (BT-549): > 100 µM (inactive); GI50 (MDA-MB-435): > 100 µM (inactive); GI50 (K562): 3.49 µM (inactive); GI50 (NCI/ADR-RES): > 100 µM (inactive); GI50 (OVCAR-4): > 100 µM (inactive); GI50 (Malme-3M): > 100 µM (inactive); GI50 (HL-60): 4.56 µM (inactive); GI50 (SW-620): > 100 µM (inactive); GI50 (COLO 205): > 100 µM (inactive); GI50 (HT-29): > 100 µM (inactive); GI50 (M14): > 100 µM (inactive); GI50 (SK-OV-3): > 100 µM (inactive); GI50 (U-251): > 100 µM (inactive)

**Q.** Which results are given for `C/C(=C1/N=C(c2ccccc2)OC1=O)c1cccs1`?
**A.** GI50 (SNB-19): > 100 µM (inactive); GI50 (HCT-15): > 100 µM; GI50 (SF-295): > 100 µM (inactive); GI50 (NCI-H522): 59.8 µM (inactive); GI50 (UACC-62): > 100 µM (inactive); GI50 (HCT-116): > 100 µM (inactive); GI50 (BT-549): > 100 µM (inactive); GI50 (MDA-MB-435): > 100 µM (inactive); GI50 (K562): > 100 µM (inactive); GI50 (OVCAR-4): 37.3 µM (inactive); GI50 (Malme-3M): > 100 µM (inactive); GI50 (HL-60): > 100 µM (inactive); GI50 (SW-620): > 100 µM (inactive); GI50 (COLO 205): > 100 µM (inactive); GI50 (HT-29): > 100 µM (inactive); GI50 (A498): > 100 µM (inactive); GI50 (M14): > 100 µM (inactive); GI50 (SK-OV-3): > 100 µM (inactive); GI50 (U-251): > 100 µM (inactive)

**Q.** What does the source list for `COC(=O)C(=O)C(C(=O)C(=O)Nc1ccccc1C(N)=O)c1nc2ccc(Cl)cc2nc1O` (stereo unspecified)?
**A.** GI50 (SNB-19): > 100 µM (inactive); GI50 (HCT-15): > 100 µM; GI50 (SF-295): > 100 µM (inactive); GI50 (UACC-62): > 100 µM (inactive); GI50 (HCT-116): > 100 µM (inactive); GI50 (BT-549): > 100 µM (inactive); GI50 (MDA-MB-435): > 100 µM (inactive); GI50 (K562): > 100 µM (inactive); GI50 (NCI/ADR-RES): > 100 µM (inactive); GI50 (OVCAR-4): > 100 µM (inactive); GI50 (HL-60): > 100 µM (inactive); GI50 (SW-620): > 100 µM (inactive); GI50 (COLO 205): > 100 µM (inactive); GI50 (HT-29): > 100 µM (inactive); GI50 (A498): > 100 µM (inactive); GI50 (M14): > 100 µM (inactive); GI50 (SK-OV-3): > 100 µM (inactive); GI50 (U-251): > 100 µM (inactive)

**Q.** What does the source list for `COc1cc(C2SCC(=O)N2Cc2ccccc2)cc(OC)c1OC` (stereo unspecified)?
**A.** GI50 (SNB-19): > 100 µM (inactive); GI50 (HCT-15): > 100 µM; GI50 (SF-295): > 100 µM (inactive); GI50 (NCI-H522): 90.4 µM (inactive); GI50 (UACC-62): 97.9 µM (inactive); GI50 (HCT-116): > 100 µM (inactive); GI50 (BT-549): > 100 µM (inactive); GI50 (MDA-MB-435): > 100 µM (inactive); GI50 (K562): > 100 µM (inactive); GI50 (NCI/ADR-RES): > 100 µM (inactive); GI50 (OVCAR-4): > 100 µM (inactive); GI50 (HL-60): > 100 µM (inactive); GI50 (SW-620): > 100 µM (inactive); GI50 (COLO 205): > 100 µM (inactive); GI50 (HT-29): > 100 µM (inactive); GI50 (M14): > 100 µM (inactive); GI50 (SK-OV-3): > 100 µM (inactive); GI50 (U-251): > 100 µM (inactive)
